Laboratory results published in PubChem BioAssay (NCI).
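Protocol summary: plate cells (96-well), add compound at 5 concentrations, incubate 48 h, interpolate endpoints linearly. GI50 = concentration required for 50% inhibition of growth. TGI: total growth inhibition.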

Key:
Assay in all cases: growth of human tumour cells (NCI), 48 h
COLO 205 colon = tested on: COLO 205 colon
EKVX NSCLC = tested on: EKVX NSCLC
HCC-2998 colon = tested on: HCC-2998 colon
HL-60(TB) leukemia = tested on: HL-60(TB) leukemia
MCF7 breast = tested on: MCF7 breast
OVCAR-4 ovarian = tested on: OVCAR-4 ovarian
OVCAR-8 ovarian = tested on: OVCAR-8 ovarian
SF-268 CNS = tested on: SF-268 CNS
SR leukemia = tested on: SR leukemia
ACHN renal = tested on: ACHN renal

COc1cc2c(cc1OCCCCCn1c(-c3ccco3)nc3ccccc31)N=C[C@@H]1CCCN1C2=O
GI50 (COLO 205 colon): < 0.01 µM | TGI (COLO 205 colon): < 0.01 µM | GI50 (EKVX NSCLC): < 0.0115 µM | TGI (EKVX NSCLC): 1.59 µM | GI50 (HCC-2998 colon): < 0.01 µM | TGI (HCC-2998 colon): 0.0193 µM | GI50 (HL-60(TB) leukemia): 0.023 µM | TGI (HL-60(TB) leukemia): 0.114 µM | GI50 (MCF7 breast): < 0.01 µM | TGI (MCF7 breast): 19 µM | GI50 (OVCAR-4 ovarian): < 0.014 µM | TGI (OVCAR-4 ovarian): > 41.4 µM | GI50 (OVCAR-8 ovarian): < 0.01 µM | TGI (OVCAR-8 ovarian): > 36.8 µM | GI50 (SF-268 CNS): < 0.01 µM | GI50 (SR leukemia): < 0.01 µM | TGI (SR leukemia): < 0.01 µM

Cc1cc(NCCCCNc2ccnc3cc(Cl)ccc23)nc(Nc2ccc(C(=O)N3CCCC3)cc2)n1
GI50 (ACHN renal): 3.6 µM | TGI (ACHN renal): 11.3 µM | GI50 (COLO 205 colon): 1.81 µM | TGI (COLO 205 colon): 3.56 µM | GI50 (EKVX NSCLC): 4.28 µM | TGI (EKVX NSCLC): 15.6 µM | GI50 (HCC-2998 colon): 2.99 µM | TGI (HCC-2998 colon): 8.36 µM | GI50 (HL-60(TB) leukemia): 0.202 µM | TGI (HL-60(TB) leukemia): 2.27 µM | GI50 (MCF7 breast): 1.72 µM | TGI (MCF7 breast): 5.02 µM | GI50 (OVCAR-4 ovarian): 2.32 µM | TGI (OVCAR-4 ovarian): 11 µM | GI50 (OVCAR-8 ovarian): 3.14 µM | TGI (OVCAR-8 ovarian): 11.2 µM | GI50 (SF-268 CNS): 2.1 µM | TGI (SF-268 CNS): 6.21 µM | GI50 (SR leukemia): 0.267 µM | TGI (SR leukemia): 1.37 µM

N#Cc1c(NC(=O)c2cccc3ccccc23)sc2c1CCCC2
GI50 (ACHN renal): 0.34 µM | TGI (ACHN renal): > 25 µM | GI50 (COLO 205 colon): 0.0723 µM | TGI (COLO 205 colon): 0.193 µM | GI50 (EKVX NSCLC): 0.132 µM | TGI (EKVX NSCLC): > 25 µM | GI50 (HCC-2998 colon): 0.0751 µM | TGI (HCC-2998 colon): > 7.9 µM | GI50 (HL-60(TB) leukemia): 0.0545 µM | GI50 (MCF7 breast): 0.09 µM | TGI (MCF7 breast): > 25 µM | GI50 (OVCAR-4 ovarian): 0.19 µM | TGI (OVCAR-4 ovarian): > 25 µM | GI50 (OVCAR-8 ovarian): 0.0918 µM | TGI (OVCAR-8 ovarian): > 25 µM | GI50 (SF-268 CNS): 0.171 µM | TGI (SF-268 CNS): > 25 µM | GI50 (SR leukemia): 0.026 µM | TGI (SR leukemia): > 9.97 µM

CCN(CC)CCCNc1nc2ccccc2c2c(=O)c3cc(Cl)ccc3sc12
GI50 (ACHN renal): 1.63 µM | TGI (ACHN renal): 3.22 µM | GI50 (COLO 205 colon): 2.33 µM | TGI (COLO 205 colon): 5.58 µM | GI50 (EKVX NSCLC): 3.74 µM | TGI (EKVX NSCLC): 17.3 µM | GI50 (HCC-2998 colon): 1.91 µM | TGI (HCC-2998 colon): 4.01 µM | GI50 (HL-60(TB) leukemia): 5.03 µM | TGI (HL-60(TB) leukemia): 23.2 µM | GI50 (MCF7 breast): 1.32 µM | TGI (MCF7 breast): 2.91 µM | GI50 (OVCAR-4 ovarian): 4.68 µM | TGI (OVCAR-4 ovarian): 22.7 µM | GI50 (OVCAR-8 ovarian): 3.26 µM | TGI (OVCAR-8 ovarian): 15.7 µM | GI50 (SF-268 CNS): 3.26 µM | TGI (SF-268 CNS): 14.3 µM | GI50 (SR leukemia): 3.75 µM | TGI (SR leukemia): > 100 µM

COc1ccc(Cn2cnc3cc(C(=O)Nc4cccc5ccccc45)ccc32)c(OC)c1
GI50 (ACHN renal): 0.078 µM | TGI (ACHN renal): > 100 µM | GI50 (COLO 205 colon): 0.0462 µM | TGI (COLO 205 colon): 0.724 µM | GI50 (EKVX NSCLC): 0.0654 µM | TGI (EKVX NSCLC): > 100 µM | GI50 (HCC-2998 colon): 0.197 µM | TGI (HCC-2998 colon): 14.6 µM | GI50 (HL-60(TB) leukemia): 0.0319 µM | TGI (HL-60(TB) leukemia): 0.145 µM | GI50 (MCF7 breast): 0.0357 µM | TGI (MCF7 breast): > 100 µM | GI50 (OVCAR-4 ovarian): 0.122 µM | TGI (OVCAR-4 ovarian): > 100 µM | GI50 (OVCAR-8 ovarian): 0.0603 µM | TGI (OVCAR-8 ovarian): > 100 µM | GI50 (SF-268 CNS): 0.104 µM | TGI (SF-268 CNS): > 51.7 µM | GI50 (SR leukemia): 0.0228 µM | TGI (SR leukemia): > 100 µM

Cc1cc(O)ccc1O
GI50 (ACHN renal): 15.7 µM | TGI (ACHN renal): 29.1 µM | GI50 (COLO 205 colon): 23.7 µM | TGI (COLO 205 colon): 47.6 µM | GI50 (EKVX NSCLC): 36.9 µM | TGI (EKVX NSCLC): > 100 µM | GI50 (HCC-2998 colon): 73.6 µM | TGI (HCC-2998 colon): > 100 µM | GI50 (HL-60(TB) leukemia): 2.64 µM | TGI (HL-60(TB) leukemia): 7.43 µM | GI50 (MCF7 breast): 19 µM | TGI (MCF7 breast): 69.8 µM | GI50 (OVCAR-4 ovarian): 15.6 µM | TGI (OVCAR-4 ovarian): 29 µM | GI50 (OVCAR-8 ovarian): 32.7 µM | TGI (OVCAR-8 ovarian): > 100 µM | GI50 (SF-268 CNS): 35.3 µM | TGI (SF-268 CNS): > 100 µM | GI50 (SR leukemia): 19.4 µM | TGI (SR leukemia): 76.6 µM
